Test: log P determination by HPLC on reverse-phase column (EEC Directive 79/831 Annex V.A8)
Assay type: physicochemical
How it was run: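 Log P was derived from retention times by linear interpolation between successive unbranched alkan-2-one standards (C3–C16). The standards and samples ran on a C18 reverse-phase column at 43 °C with a 10→95% acetonitrile gradient in 0.1% formic acid (pH 2.7). The method follows EEC Directive 79/831 Annex V.A8.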

Point of comparison: `N#CCNC(=O)c1cc(Cl)cc(Cl)c1NC(=O)c1cc(Cn2cc(C(F)(F)C(F)(F)F)c(C(F)(F)C(F)(F)F)n2)nn1-c1ncccc1Cl` [I-1-299], logP 3.53. Against it:
- Cc1cc(I)cc(C(=O)NC2CCC2)c1NC(=O)c1cc(Cn2nc(C(F)(F)F)nc2C(F)(F)F)nn1-c1ncccc1Cl [I-1-282] — higher, 4.18
- CCNC(=O)c1cc(I)cc(C)c1NC(=O)c1cc(Cn2nc(C(F)(F)F)nc2C(F)(F)F)nn1-c1ncccc1Cl [I-1-283] — higher, 3.89
- Cc1cc(I)cc(C(=O)NC(C)C2CC2)c1NC(=O)c1cc(Cn2nc(C(F)(F)F)nc2C(F)(F)F)nn1-c1ncccc1Cl (centres unmarked) [I-1-284] — higher, 4.16
- Cc1cc(I)cc(C(=O)NC(C)(C)C)c1NC(=O)c1cc(Cn2nc(C(F)(F)F)nc2C(F)(F)F)nn1-c1ncccc1Cl [I-1-285] — higher, 4.23
- Cc1cc(I)cc(C(=O)NC(C2CC2)C2CC2)c1NC(=O)c1cc(Cn2nc(C(F)(F)F)nc2C(F)(F)F)nn1-c1ncccc1Cl [I-1-286] — higher, 4.52
- Cc1cc(I)cc(C(=O)NC(C)C2CC2)c1NC(=O)c1cc(Cn2cc(Cl)c(C(F)(F)C(F)(F)F)n2)nn1-c1ncccc1Cl (centres unmarked) [I-1-287] — higher, 4.69
- Cc1cc(I)cc(C(=O)NC(C2CC2)C2CC2)c1NC(=O)c1cc(Cn2cc(Cl)c(C(F)(F)C(F)(F)F)n2)nn1-c1ncccc1Cl [I-1-288] — higher, 4.79
- Cc1cc(I)cc(C(=O)NC(C)(C)C)c1NC(=O)c1cc(Cn2cc(Cl)c(C(F)(F)C(F)(F)F)n2)nn1-c1ncccc1Cl [I-1-289] — higher, 4.63
- CNC(=O)c1cc(Cl)cc(Cl)c1NC(=O)c1cc(Cn2nc(C(F)(F)F)nc2C(F)(F)F)nn1-c1ncccc1Cl [I-1-290] — within 0.2 log units, 3.40
- CC(C)NC(=O)c1cc(Cl)cc(Cl)c1NC(=O)c1cc(Cn2nc(C(F)(F)F)nc2C(F)(F)F)nn1-c1ncccc1Cl [I-1-291] — higher, 3.76
- N#CCNC(=O)c1cc(Cl)cc(Cl)c1NC(=O)c1cc(Cn2nc(C(F)(F)F)nc2C(F)(F)F)nn1-c1ncccc1Cl [I-1-292] — lower, 2.83
- O=C(NCC1CC1)c1cc(Cl)cc(Cl)c1NC(=O)c1cc(Cn2nc(C(F)(F)F)nc2C(F)(F)F)nn1-c1ncccc1Cl [I-1-293] — lower, 3.22
- CC(C)NC(=O)c1cc(Cl)cc(Cl)c1NC(=O)c1cc(Cn2cc(C(F)(F)C(F)(F)F)c(C(F)(F)C(F)(F)F)n2)nn1-c1ncccc1Cl [I-1-294] — higher, 4.00
- O=C(NC1CC1)c1cc(Cl)cc(Cl)c1NC(=O)c1cc(Cn2nc(C(F)(F)F)nc2C(F)(F)F)nn1-c1ncccc1Cl [I-1-295] — lower, 2.95
- NC(=O)c1cc(Cl)cc(Cl)c1NC(=O)c1cc(Cn2cc(C(F)(F)C(F)(F)F)c(C(F)(F)C(F)(F)F)n2)nn1-c1ncccc1Cl [I-1-296] — within 0.2 log units, 3.43
- CNC(=O)c1cc(Cl)cc(Cl)c1NC(=O)c1cc(Cn2cc(C(F)(F)C(F)(F)F)c(C(F)(F)C(F)(F)F)n2)nn1-c1ncccc1Cl [I-1-297] — within 0.2 log units, 3.59
- NC(=O)c1cc(Cl)cc(Cl)c1NC(=O)c1cc(Cn2nc(C(F)(F)F)nc2C(F)(F)F)nn1-c1ncccc1Cl [I-1-298] — lower, 2.61
- O=C(NC1CC1)c1cc(Cl)cc(Cl)c1NC(=O)c1cc(Cn2nc(C(F)(F)F)cc2C(F)(F)F)nn1-c1ncccc1Cl [I-1-300] — lower, 3.19
- CC(C)NC(=O)c1cc(Cl)cc(Cl)c1NC(=O)c1cc(Cc2ccoc2)nn1-c1ncccc1Cl [I-1-301] — lower, 2.60
- NC(=O)c1cc(Cl)cc(Cl)c1NC(=O)c1cc(Cn2nc(C(F)(F)F)cc2C(F)(F)F)nn1-c1ncccc1Cl [I-1-302] — lower, 2.80
- N#CCNC(=O)c1cc(Cl)cc(Cl)c1NC(=O)c1cc(Cn2nc(C(F)(F)F)cc2C(F)(F)F)nn1-c1ncccc1Cl [I-1-303] — lower, 2.98
- CNC(=O)c1cc(Cl)cc(Cl)c1NC(=O)c1cc(Cn2nc(C(F)(F)F)cc2C(F)(F)F)nn1-c1ncccc1Cl [I-1-304] — lower, 3.01
- CC(C)NC(=O)c1cc(Cl)cc(Cl)c1NC(=O)c1cc(Cn2nc(C(F)(F)F)cc2C(F)(F)F)nn1-c1ncccc1Cl [I-1-305] — within 0.2 log units, 3.40
- CNC(=O)c1cc(Cl)cc(Cl)c1NC(=O)c1cc(Cc2ccoc2)nn1-c1ncccc1Cl [I-1-306] — lower, 2.18
- NC(=O)c1cc(Cl)cc(Cl)c1NC(=O)c1cc(Cn2cc(Cl)c(C(F)(F)C(F)(F)F)n2)nn1-c1ncccc1Cl [I-1-307] — lower, 2.95
- CNC(=O)c1cc(Cl)cc(Cl)c1NC(=O)c1cc(Cn2cc(Cl)c(C(F)(F)C(F)(F)F)n2)nn1-c1ncccc1Cl [I-1-308] — lower, 3.18
- CC(C)NC(=O)c1cc(Cl)cc(Cl)c1NC(=O)c1cc(Cn2cc(Cl)c(C(F)(F)C(F)(F)F)n2)nn1-c1ncccc1Cl [I-1-309] — the same, 3.53
- N#CCNC(=O)c1cc(Cl)cc(Cl)c1NC(=O)c1cc(Cn2cc(Cl)c(C(F)(F)C(F)(F)F)n2)nn1-c1ncccc1Cl [I-1-310] — lower, 3.13
- NC(=O)c1cc(Cl)cc(Cl)c1NC(=O)c1cc(Cn2ccc(C(F)(F)F)n2)nn1-c1ncccc1Cl [I-1-311] — lower, 2.21
- CNC(=O)c1cc(Cl)cc(Cl)c1NC(=O)c1cc(Cn2ccc(C(F)(F)F)n2)nn1-c1ncccc1Cl [I-1-312] — lower, 2.37
- N#CCNC(=O)c1cc(Cl)cc(Cl)c1NC(=O)c1cc(Cn2ccc(C(F)(F)F)n2)nn1-c1ncccc1Cl [I-1-313] — lower, 2.43
- CC(C)NC(=O)c1cc(Cl)cc(Cl)c1NC(=O)c1cc(Cn2ccc(C(F)(F)F)n2)nn1-c1ncccc1Cl [I-1-314] — lower, 2.77
- O=C(NC1CC1)c1cc(Cl)cc(Cl)c1NC(=O)c1cc(Cn2ccc(C(F)(F)F)n2)nn1-c1ncccc1Cl [I-1-315] — lower, 2.54
- CNC(=O)c1cc(Cl)cc(Cl)c1NC(=O)c1cc(Cc2cccnc2)nn1-c1ncccc1Cl [I-1-316] — lower, 1.03
- CC(C)NC(=O)c1cc(Cl)cc(Cl)c1NC(=O)c1cc(Cc2cccnc2)nn1-c1ncccc1Cl [I-1-317] — lower, 1.31
- CC(C)NC(=O)c1cc(Cl)cc(Cl)c1NC(=O)c1cc(Cc2cncnc2)nn1-c1ncccc1Cl [I-1-318] — lower, 1.62
- NC(=O)c1cc(Cl)cc(Cl)c1NC(=O)c1cc(Cc2cncnc2)nn1-c1ncccc1Cl [I-1-319] — lower, 2.02
- N#CCNC(=O)c1cc(Cl)cc(Cl)c1NC(=O)c1cc(Cc2cncnc2)nn1-c1ncccc1Cl [I-1-320] — lower, 1.49
- CNC(=O)c1cc(Cl)cc(Cl)c1NC(=O)c1cc(Cc2cncnc2)nn1-c1ncccc1Cl [I-1-321] — lower, 1.41
- CNC(=O)c1cc(Cl)cc(Cl)c1NC(=O)c1cc(Cc2c(C)noc2C)nn1-c1ncccc1Cl [I-1-322] — lower, 1.94
- Cc1cc(Cl)cc(C(=O)NC(C)C)c1NC(=O)c1cc(Cn2cnc(C(F)(F)C(F)(F)F)n2)nn1-c1ncccc1Cl [I-1-323] — lower, 3.01
- C[C@@H](C[S+](C)[O-])NC(=O)c1cc(Cl)cc(Cl)c1NC(=O)c1cc(Cn2cc(C(F)(F)C(F)(F)F)c(C(F)(F)C(F)(F)F)n2)nn1-c1ncccc1Cl (some centres unmarked) [I-1-325] — within 0.2 log units, 3.54
- CNC(=O)c1cc(Cl)cc(Cl)c1NC(=O)c1cc(Cn2cnc(C(F)(F)C(F)(F)F)n2)nn1-c1ncccc1Cl [I-1-326] — lower, 2.55
- CC(C)NC(=O)c1cc(Cl)cc(Cl)c1NC(=O)c1cc(Cn2cnc(C(F)(F)C(F)(F)F)n2)nn1-c1ncccc1Cl [I-1-327] — lower, 2.97
- C[C@@H](CS(C)(=O)=O)NC(=O)c1cc(Cl)cc(Cl)c1NC(=O)c1cc(Cn2cc(C(F)(F)C(F)(F)F)c(C(F)(F)C(F)(F)F)n2)nn1-c1ncccc1Cl [I-1-328] — within 0.2 log units, 3.63
- CNC(=O)c1cc(Cl)cc(C)c1NC(=O)c1cc(Cn2cnc(C(F)(F)C(F)(F)F)n2)nn1-c1ncccc1Cl [I-1-329] — lower, 2.57

— patent publication US8101550B2, “Anthranilic acid diamide derivative with hetero-aromatic and hetero-cyclic substituents” (Bayer Cropscience AG, priority 2006, dated 2012)
